In test [1] the test system is Escherichia coli. As to the kind of experiment: Antibacterial activity against Escherichia coli DH5alpha in presence of 10 mM N-Acetylcysteine. The class given is functional. Conditions: DH5[alpha].
Test [2] relates to Escherichia coli. Nature of the test: Antibacterial activity against Escherichia coli DH5alpha. The class given is functional. Conditions: DH5[alpha].
The test system of test [3] is Escherichia coli. Nature of the test: Antibacterial activity against Escherichia coli W3110 in presence of 10 mM N-Acetylcysteine. The class given is functional. Conditions: K-12 substr. W3110.
The subject of test [4] is Escherichia coli. Nature of the test: Antibacterial activity against Escherichia coli W3110. The class given is functional. Conditions: K-12 substr. W3110.
In test [5] the test system is Escherichia coli. As to the kind of experiment: Antibacterial activity against Escherichia coli MG1655 in presence of 10 mM N-Acetylcysteine. The class given is functional.
Test [6] deals with Escherichia coli. As to the kind of experiment: Antibacterial activity against Escherichia coli MG1655. The class given is functional.
Test [7] has as its system Pseudomonas aeruginosa. Nature of the test: Antibacterial activity against Pseudomonas aeruginosa NCIM 5029. The class given is functional.
The subject of test [8] is Pseudomonas aeruginosa. As to the kind of experiment: Antibacterial activity against Pseudomonas aeruginosa NCIM 5029 in presence of 10 mM N-Acetylcysteine. The class given is functional.
Test [9] has as its system Klebsiella aerogenes. Nature of the test: Antibacterial activity against Klebsiella aerogenes NCIM 2281. The class given is functional.
In test [10] the test system is Klebsiella aerogenes. Nature of the test: Antibacterial activity against Klebsiella aerogenes NCIM 2281 in presence of 10 mM N-Acetylcysteine. The class given is functional.
In the next test the test system is Klebsiella pneumoniae. As to the kind of experiment: Antibacterial activity against Klebsiella pneumoniae NCIM 2883 assessed as growth inhibition in presence of 10 mM N-Acetylcysteine. The class given is functional, organism-based.

≈ marks a conversion by molar mass, not a printed value. Calls of active or inactive are those of the source.

The source of these data is ChEMBL document CHEMBL1275260, “N-acetylcysteine-mediated modulation of bacterial antibiotic susceptibility” (2010).

The MIC is the smallest concentration in the dilution series that meets the test's criterion for growth inhibition.

As for `NC[C@H]1O[C@H](O[C@H]2[C@H](O)[C@@H](O[C@H]3O[C@H](CO)[C@@H](O)[C@H](N)[C@H]3O)[C@H](N)C[C@@H]2N)[C@H](O)[C@@H](O)[C@@H]1O` [KANAMYCIN], the MIC came to 0.5 µg/mL in the test on Escherichia coli [1]; 0.5 µg/mL (≈ 1.03 µM) against Escherichia coli [2]; 16 µg/mL in the test on Escherichia coli [3]; 1 µg/mL (≈ 2.06 µM) with Escherichia coli [4]; 32 µg/mL with Escherichia coli [5]; 1 µg/mL (≈ 2.06 µM) with Escherichia coli [6]. The minimal inhibitory concentration (MIC) amounted to 64 µg/mL (≈ 132 µM) with Pseudomonas aeruginosa [7], 256 µg/mL in the test on Pseudomonas aeruginosa [8], 1 µg/mL (≈ 2.06 µM) against Klebsiella aerogenes [9] and 16 µg/mL in the test on Klebsiella aerogenes [10]. Besides, the result in the test on Klebsiella pneumoniae was Active.
On to `CC1COc2c(N3CCN(C)CC3)c(F)cc3c(=O)c(C(=O)O)cn1c23` (stereo not given) [OFLOXACIN], for which the minimal inhibitory concentration (MIC) is 0.032 µg/mL in the test on Escherichia coli [3]; 1.02 µg/mL in the test on Escherichia coli [5]; 0.032 µg/mL (≈ 0.0886 µM) against Escherichia coli [6]; 0.256 µg/mL (≈ 0.708 µM) with Pseudomonas aeruginosa [7]; 2.05 µg/mL in the test on Pseudomonas aeruginosa [8]; 0.064 µg/mL (≈ 0.177 µM) against Klebsiella aerogenes [9]. Further, the minimal inhibitory concentration (MIC) in the test with Klebsiella aerogenes [10] worked out at 0.512 µg/mL. For the same molecule, the outcome with Klebsiella pneumoniae was Active.
For `O=C(O)c1cn(C2CC2)c2cc(N3CCNCC3)c(F)cc2c1=O` [CIPROFLOXACIN], the MIC turned out to be 0.064 µg/mL with Escherichia coli [3]; 0.512 µg/mL in the test with Escherichia coli [5]; 1.02 µg/mL (≈ 3.09 µM) in the test on Pseudomonas aeruginosa [7]; 2.05 µg/mL in the test on Pseudomonas aeruginosa [8]; 0.016 µg/mL (≈ 0.0483 µM) against Klebsiella aerogenes [9]; 0.512 µg/mL with Klebsiella aerogenes [10]. Moreover, the outcome in the test with Klebsiella pneumoniae was Active.
On to `O=C(N[C@H](CO)[C@H](O)c1ccc([N+](=O)[O-])cc1)C(Cl)Cl` [CHLORAMPHENICOL], for which the MIC in the test on Escherichia coli [1] came out at 2 µg/mL; in the test on Escherichia coli [2], 2 µg/mL (≈ 6.19 µM); with Escherichia coli [3] it was 1 µg/mL; in the test on Escherichia coli [4], 1 µg/mL (≈ 3.09 µM); with Escherichia coli [5], 4 µg/mL; against Escherichia coli [6], 4 µg/mL (≈ 12.4 µM). In addition, the minimum inhibitory concentration (MIC) in the test with Pseudomonas aeruginosa [7] stood at 128 µg/mL (≈ 396 µM); in the test with Pseudomonas aeruginosa [8], 128 µg/mL; against Klebsiella aerogenes [9] it was 1 µg/mL (≈ 3.09 µM); in the test on Klebsiella aerogenes [10] it was 1 µg/mL. The outcome in the test on Klebsiella pneumoniae was Active.
Consider `CC1(C)S[C@@H]2[C@H](NC(=O)Cc3ccccc3)C(=O)N2[C@H]1C(=O)O` [PENICILLIN G], for which the MIC was 64 µg/mL in the test with Escherichia coli [3]; 64 µg/mL (≈ 191 µM) with Escherichia coli [4]; 64 µg/mL in the test with Escherichia coli [5]; 64 µg/mL (≈ 191 µM) in the test with Escherichia coli [6]; above 4100 µg/mL against Pseudomonas aeruginosa [7]; 2050 µg/mL with Pseudomonas aeruginosa [8]. Besides, the MIC in the test with Klebsiella aerogenes [9] was determined as 64 µg/mL (≈ 191 µM); with Klebsiella aerogenes [10] it was 64 µg/mL. For the same molecule, the outcome with Klebsiella pneumoniae was Active.
For `CN[C@@H]1[C@H](O)[C@H](NC)[C@H]2O[C@@]3(O)C(=O)C[C@@H](C)O[C@H]3O[C@@H]2[C@H]1O` [SPECTINOMYCIN], the MIC in the test on Escherichia coli [1] was found to be 4 µg/mL; against Escherichia coli [2], 4 µg/mL (≈ 12 µM); in the test on Escherichia coli [3] it was 128 µg/mL; against Escherichia coli [4], 6 µg/mL (≈ 18.1 µM); with Escherichia coli [5] it was 256 µg/mL; with Escherichia coli [6], 8 µg/mL (≈ 24.1 µM). Also, the MIC with Pseudomonas aeruginosa [7] was 256 µg/mL (≈ 770 µM); in the test on Pseudomonas aeruginosa [8] it was 512 µg/mL; in the test on Klebsiella aerogenes [9], 8 µg/mL (≈ 24.1 µM); in the test with Klebsiella aerogenes [10] it was 128 µg/mL. For the same molecule, the outcome in the test on Klebsiella pneumoniae was Active.
On to `CC[C@H]1OC(=O)[C@H](C)[C@@H](O[C@H]2C[C@@](C)(OC)[C@@H](O)[C@H](C)O2)[C@H](C)[C@@H](O[C@@H]2O[C@H](C)C[C@H](N(C)C)[C@H]2O)[C@](C)(O)C[C@@H](C)C(=O)[C@H](C)[C@@H](O)[C@]1(C)O` [ERYTHROMYCIN], for which the minimal inhibitory concentration (MIC) with Escherichia coli [1] came out at 16 µg/mL; against Escherichia coli [2], 16 µg/mL (≈ 21.8 µM); with Escherichia coli [3] it was 512 µg/mL; with Escherichia coli [4], 4 µg/mL (≈ 5.45 µM); in the test with Escherichia coli [5], 1020 µg/mL; in the test on Escherichia coli [6] it was 32 µg/mL (≈ 43.6 µM). The MIC against Pseudomonas aeruginosa [7] turned out to be 256 µg/mL (≈ 349 µM); in the test with Pseudomonas aeruginosa [8], 1020 µg/mL; against Klebsiella aerogenes [9] it was 32 µg/mL (≈ 43.6 µM); in the test on Klebsiella aerogenes [10], 1020 µg/mL. In addition, the result with Klebsiella pneumoniae was Active.
For the molecule `CN[C@@H]1[C@H](O[C@H]2[C@H](O[C@H]3[C@H](O)[C@@H](O)[C@H](N=C(N)N)[C@@H](O)[C@@H]3N=C(N)N)O[C@@H](C)[C@]2(O)C=O)O[C@@H](CO)[C@H](O)[C@H]1O` [STREPTOMYCIN], the MIC with Escherichia coli [1] amounted to 1 µg/mL; against Escherichia coli [2], 1 µg/mL (≈ 1.72 µM); in the test on Escherichia coli [3] it was 16 µg/mL; with Escherichia coli [4], 2 µg/mL (≈ 3.44 µM); in the test with Escherichia coli [5], 32 µg/mL; with Escherichia coli [6], 2 µg/mL (≈ 3.44 µM). The MIC with Pseudomonas aeruginosa [7] was determined as 8 µg/mL (≈ 13.8 µM); in the test with Pseudomonas aeruginosa [8], 64 µg/mL; in the test with Klebsiella aerogenes [9], 2 µg/mL (≈ 3.44 µM); with Klebsiella aerogenes [10], 16 µg/mL. The result with Klebsiella pneumoniae was Active.
As for `CN(C)[C@@H]1C(O)=C(C(N)=O)C(=O)[C@@]2(O)C(O)=C3C(=O)c4c(O)cccc4[C@@](C)(O)[C@H]3C[C@@H]12` [TETRACYCLINE], the MIC in the test on Escherichia coli [1] is 1 µg/mL; in the test with Escherichia coli [2] it was 1 µg/mL (≈ 2.25 µM); in the test on Escherichia coli [3] it was 0.062 µg/mL; with Escherichia coli [4] it was 0.062 µg/mL (≈ 0.14 µM); in the test with Escherichia coli [5], 1 µg/mL; against Escherichia coli [6] it was 1 µg/mL (≈ 2.25 µM). Further, the MIC was found to be 8 µg/mL (≈ 18 µM) in the test with Pseudomonas aeruginosa [7], 8 µg/mL with Pseudomonas aeruginosa [8], 1 µg/mL (≈ 2.25 µM) in the test on Klebsiella aerogenes [9] and 1 µg/mL with Klebsiella aerogenes [10]. The result with Klebsiella pneumoniae was Active.
As to `CC1(C)S[C@@H]2[C@H](NC(=O)[C@H](N)c3ccccc3)C(=O)N2[C@H]1C(=O)O` [AMPICILLIN], the MIC in the test on Escherichia coli [1] was determined as 4 µg/mL; against Escherichia coli [2] it was 4 µg/mL (≈ 11.4 µM); against Escherichia coli [4], 8 µg/mL (≈ 22.9 µM); in the test on Escherichia coli [5], 1 µg/mL; in the test with Escherichia coli [6], 4 µg/mL (≈ 11.4 µM); in the test on Pseudomonas aeruginosa [7], 1020 µg/mL (≈ 2930 µM). For the same molecule, the MIC with Pseudomonas aeruginosa [8] amounted to 128 µg/mL; in the test with Klebsiella aerogenes [9], 32 µg/mL (≈ 91.6 µM); in the test with Klebsiella aerogenes [10] it was 32 µg/mL. Further, in the test with Klebsiella pneumoniae, the outcome was Active.
